These molecules were tested on Bloodstream form of Trypanosoma brucei, strain Lister 427 (assay: Trypanosoma brucei growth inhibition assay (CellTiter-Glo, 24 h)). Conditions: T. Brucei Growth Inibition Assay, class symbols; read-out: T. Brucei GI EC50.
Assay type: cell-based
Experimental: Bloodstream form of Trypanosoma brucei, strain Lister 427 (provided by Prof. Miguel Navarro, Instituto de Parasitologia y Biomedicina “Lopez-Neyra” Avda. Conocimiento S/N Parque Tecnologico Ciencias de la Salud—Spain; ref. Navarro M. and Cross G. A. M. Molecular and Cellular Biology, 1996, Vol. 16, No. 7, pp. 3615-3625) were grown in IMDM Iscove's Modified Dulbecco's Medium (SIGMA #17633) supplemented with: 3.024 g/l sodium bicarbonate, hypoxanthine 1 mM, thymidine 0.16 mM, bathocuprione sulfonic acid 0.05 mM, cysteine 1.5 mM, ß-mercaptoethanol […] and 10% foetal bovine serum (heat-inactivated at 56° C. for 30 min). Parasites were grown at 37° C. in flasks with vented caps in a 5% CO2 incubator to a maximum cell density of about 2×10^6/ml and diluted every two-three days.
The compounds of the invention were dissolved in DMSO and transferred to assay plates by acoustic droplet ejection (ATS-100, EDC Biosystems, USA) in order to obtain an appropriate concentration and to keep the concentration of DMSO below or equal to 0.25% in the final assay volume of 30 μL. 1500 parasites resuspended in 30 μL of culture medium were then transferred to each well of a 384-well plate.
After an incubation period of 24 hours at 37° C., each well is added 15 μl of CellTiter-Glo® Reagent (Promega) and incubated at room temperature. 5-10 min post incubation, the plate is read using a luminometer (ViewLux®). A known inhibitor of the growth of T. brucei was used as the reference positive control.

With `COc1nc2ccccc2cc1-c1cnc(C2CN(CC3CCOC3)CCN2C(=O)CCc2n[nH]c3c2CCCC3)[nH]1` (centres unmarked) the EC50 was 1010 to 5000 nM.

Same assay, conditions: Trypanosoma brucei; T. Brucei Growth Inibition Assay, class symbols; read-out: T. Brucei GI EC50

`COc1nc2ccccc2cc1-c1cnc([C@@H]2CN(C3CCN(C(C)=O)CC3)CCN2C(=O)Cn2c(C(F)(F)F)nc3ccccc32)[nH]1` [(S)-1-(4-(1-acetylpiperidin-4-yl)-2-(5-(2-methoxyquinolin-3-yl)-1H-imidazol-2-yl)piperazin-1-yl)-2-(2-(trifluoromethyl)-1H-benzo[d]imidazol-1-yl)ethan-1-one] and `COc1ccc2nc(C(F)(F)F)n(CC(=O)N3CCN(C4CCOCC4)CCC3c3ncc(-c4cc5ccccc5nc4OC)[nH]3)c2c1` (centres unmarked) [2-(6-methoxy-2-(trifluoromethyl)-1H-benzo[d]imidazol-1-yl)-1-(7-(5-(2-methoxyquinolin-3-yl)-1H-imidazol-2-yl)-4-(tetrahydro-2H-pyran-4-yl)-1,4-diazepan-1-yl)ethan-1-one] cannot be ordered by EC50: < 100 nM for the first, < 100 nM for the second.

`COc1ccc2nc(C(F)(F)F)n(CC(=O)N3CCN(Cc4cscn4)C[C@H]3c3ncc(-c4cc5ccccc5nc4OC)[nH]3)c2c1` [(S)-2-(6-methoxy-2-(trifluoromethyl)-1H-benzo[d]imidazol-1-yl)-1-(2-(5-(2-methoxyquinolin-3-yl)-1H-imidazol-2-yl)-4-(thiazol-4-ylmethyl)piperazin-1-yl)ethan-1-one] and `COc1ccc2nc(C(F)(F)F)n(CC(=O)N3CCN(Cc4ccon4)CCC3c3ncc(-c4cc5ccccc5nc4OC)[nH]3)c2c1` (centres unmarked) [1-(4-(isoxazol-3-ylmethyl)-7-(5-(2-methoxyquinolin-3-yl)-1H-imidazol-2-yl)-1,4-diazepan-1-yl)-2-(6-methoxy-2-(trifluoromethyl)-1H-benzo[d]imidazol-1-yl)ethan-1-one] cannot be ordered by EC50: < 100 nM for the first, < 100 nM for the second.

Compared with `COc1ccc2[nH]cc(CC(=O)N3CCN(CC4CCOC4)CC3c3ncc(-c4cc5ccccc5nc4OC)[nH]3)c2c1` (centres unmarked), `COc1ccc2cc(C)n(CC(=O)N3CCN(CC4CCOC4)C[C@H]3c3ncc(-c4cc5ccccc5nc4OC)[nH]3)c2c1` (stereo partly drawn) [2-(6-methoxy-2-methyl-1H-indol-1-yl)-1-((2S)-2-(5-(2-methoxyquinolin-3-yl)-1H-imidazol-2-yl)-4-((tetrahydrofuran-3-yl)methyl)piperazin-1-yl)ethan-1-one] is lower in EC50: 100 to 500 nM for the first, < 100 nM for the second. The second is the more potent here.

`COc1nc2ccccc2cc1-c1cnc(C2CN(CC3CCOC3)CCN2C(=O)Cc2ccc(N3CCNC3=O)cc2)[nH]1` (centres unmarked) and `COc1nc2ccccc2cc1-c1cnc(C2CN(CC3CCOC3)CCN2C(=O)Cc2nc(-c3ccccc3)oc2C)[nH]1` (centres unmarked) fall in the same range of EC50: 1010 to 5000 nM for the first, 1010 to 5000 nM for the second.

Compared with `COc1ccc2nc(C)n(CC(=O)N3CCN(CC4CCOC4)C[C@H]3c3ncc(-c4cc5ccccc5n4C(=O)OC(C)(C)C)[nH]3)c2c1` (some centres unmarked), `COc1ccc2nc(C)n(CC(=O)N3CCN(C4CCOCC4)C[C@H]3c3ncc(-c4cc5ccccc5nc4OC)[nH]3)c2c1` is lower in EC50: 1010 to 5000 nM for the first, 100 to 500 nM for the second.

First: COc1ccc2nc(C)n(CC(=O)N3CC[C@H](N(C)Cc4cnccn4)C[C@H]3c3ncc(-c4cc5ccccc5nc4OC)[nH]3)c2c1
Second: COc1ccc2nc(C(F)(F)F)n(CC(=O)N3CC[C@@H](N(C)Cc4ccn(C)n4)C[C@H]3c3ncc(-c4cc5ccccc5nc4OC)[nH]3)c2c1 [2-(6-methoxy-2-(trifluoromethyl)-1H-benzo[d]imidazol-1-yl)-1-((2S,4R)-2-(5-(2-methoxyquinolin-3-yl)-1H-imidazol-2-yl)-4-(methyl((1-methyl-1H-pyrazol-3-yl)methyl)amino)piperidin-1-yl)ethan-1-one]
The EC50 of the first is higher: 100 to 500 nM for the first, < 100 nM for the second. The second is the more potent here.

`COc1nc2ccccc2cc1-c1cnc(C2CN(CC(F)F)CCN2C(=O)Cc2ccccc2)[nH]1` (centres unmarked) and `COc1nc2ccccc2cc1-c1cnc(C2CNCCN2C(=O)Cc2ccccc2)[nH]1` (centres unmarked) fall in the same range of EC50: 1010 to 5000 nM for the first, 1010 to 5000 nM for the second.

First: COc1nc2ccccc2cc1-c1cnc(C2CS(=O)(=O)CCN2C(=O)Cn2nc(C)c3ccccc3c2=O)[nH]1 (centres unmarked)
Second: COc1nc2ccccc2cc1-c1cnc([C@@H]2CN(Cc3ccon3)CCN2C(=O)Cn2c(C(F)(F)F)nc3ccccc32)[nH]1 [(S)-1-(4-(isoxazol-3-ylmethyl)-2-(5-(2-methoxyquinolin-3-yl)-1H-imidazol-2-yl)piperazin-1-yl)-2-(2-(trifluoromethyl)-1H-benzo[d]imidazol-1-yl)ethan-1-one]
The EC50 of the first is higher: 1010 to 5000 nM for the first, < 100 nM for the second.

`COc1ccc2nc(C(F)(F)F)n(CC(=O)N3CC[C@H](NCC4COC4)C[C@H]3c3ncc(-c4cc5ccccc5nc4OC)[nH]3)c2c1` [2-(6-methoxy-2-(trifluoromethyl)-1H-benzo[d]imidazol-1-yl)-1-((2S,4S)-2-(5-(2-methoxyquinolin-3-yl)-1H-imidazol-2-yl)-4-((oxetan-3-ylmethyl)amino)piperidin-1-yl)ethan-1-one] and `COc1ccc2nc(C(F)(F)F)n(CC(=O)N3CC[C@H](NCC(C)C)C[C@H]3c3ncc(-c4cc5ccccc5nc4OC)[nH]3)c2c1` [1-((2S,4S)-4-(isobutylamino)-2-(5-(2-methoxyquinolin-3-yl)-1H-imidazol-2-yl)piperidin-1-yl)-2-(6-methoxy-2-(trifluoromethyl)-1H-benzo[d]imidazol-1-yl)ethan-1-one] cannot be ordered by EC50: < 100 nM for the first, < 100 nM for the second.

First: COc1nc2ccccc2cc1-c1cnc(C2CN(C(=O)c3cnn(C(C)C)c3)CCN2C(=O)Cc2c(C)[nH]c3ccc(F)cc23)[nH]1 (centres unmarked)
Second: COc1ccc2[nH]c(C)c(CC(=O)N3CCNCC3c3ncc(-c4cc5ccccc5nc4OC)[nH]3)c2c1 (centres unmarked)
The EC50 of the first is higher: 1010 to 5000 nM for the first, 510 to 1000 nM for the second. The second is the more potent here.

First: COc1ccc2cc(C)n(CC(=O)N3CCN(Cc4ccn(C)n4)CCC3c3ncc(-c4cc5ccccc5nc4OC)[nH]3)c2c1 (centres unmarked) [2-(6-methoxy-2-methyl-1H-indol-1-yl)-1-(7-(5-(2-methoxyquinolin-3-yl)-1H-imidazol-2-yl)-4-((1-methyl-1H-pyrazol-3-yl)methyl)-1,4-diazepan-1-yl)ethan-1-one]
Second: COc1ccc2nc(C)n(CC(=O)N3CCN(Cc4cn(C)nn4)C[C@H]3c3ncc(-c4cc5ccccc5nc4OC)[nH]3)c2c1
The EC50 of the first is lower: < 100 nM for the first, 510 to 1000 nM for the second.

`COc1ccc2nc(C(F)(F)F)n(CC(=O)N3CC[C@H](NCc4nccs4)C[C@H]3c3ncc(-c4cc5ccccc5nc4OC)[nH]3)c2c1` [2-(6-methoxy-2-(trifluoromethyl)-1H-benzo[d]imidazol-1-yl)-1-((2S,4S)-2-(5-(2-methoxyquinolin-3-yl)-1H-imidazol-2-yl)-4-((thiazol-2-ylmethyl)amino)piperidin-1-yl)ethan-1-one] and `COc1nc2ccccc2cc1-c1cnc([C@@H]2CN(Cc3nccs3)CCN2C(=O)Cn2c(C(F)(F)F)nc3ccccc32)[nH]1` [(S)-1-(2-(5-(2-methoxyquinolin-3-yl)-1H-imidazol-2-yl)-4-(thiazol-2-ylmethyl)piperazin-1-yl)-2-(2-(trifluoromethyl)-1H-benzo[d]imidazol-1-yl)ethan-1-one] cannot be ordered by EC50: < 100 nM for the first, < 100 nM for the second.

First: COc1ccc2nc(C(F)(F)F)n(CC(=O)N3CCN(CCn4cnnc4)C[C@H]3c3ncc(-c4cc5ccccc5nc4OC)[nH]3)c2c1
Second: COc1ccc2nc(C(F)(F)F)n(CC(=O)N3CCN(CCc4ccccn4)CCC3c3ncc(-c4cc5ccccc5nc4OC)[nH]3)c2c1 (centres unmarked) [2-(6-methoxy-2-(trifluoromethyl)-1H-benzo[d]imidazol-1-yl)-1-(7-(5-(2-methoxyquinolin-3-yl)-1H-imidazol-2-yl)-4-(2-(pyridin-2-yl)ethyl)-1,4-diazepan-1-yl)-ethan-1-one]
The EC50 of the first is higher: 1010 to 5000 nM for the first, 100 to 500 nM for the second. The second is the more potent here.

`CCCCCCN1CCN(C(=O)CC2=C(C)NC3C=CC=CC23)C(c2ncc(-c3cc4ccccc4nc3O)[nH]2)C1` (centres unmarked) and `O=C(Cc1nc2ccccc2o1)N1CCN(CC2CC2)CC1c1ncc(-c2ccc3ccccc3c2)[nH]1` (centres unmarked) fall in the same range of EC50: 1010 to 5000 nM for the first, 1010 to 5000 nM for the second.

From patent US10815222B2, “Compounds for use in the treatment of kinetoplastid infection” (C.N.C.C.S. S.c.a.r.l. COLLEZIONE NAZIONALE DEI COMPOSTI …, priority 2016, dated 2020)
